Measurements as given in patent US20090099167A1, “Organic compounds” (Novartis Institutes for Biomedical Research, priority 2004, published 2009).

Columns and labels:
human IGF-IR = molecular target: T1, human IGF-IR (Homo sapiens, UniProt P08069); experiment: IGF-1R tyrosine kinase assay, GST-IGF-1R; assay type: biochemical; settings: Table 5; read-out: IGF-1R, IC50 class
T1 construct: expresses the amino acid region 950-1337 of the mature peptide cytoplasmic domain of the human IGF-IR; made in house; host or cells: baculovirus (Bac-to-Bac)
Source text: The inhibition of IGF-1R and Ins-R can be determined as follows: The baculovirus donor vector pfbgx3IGFIRcd is used to generate a recombinant baculovirus that expresses the amino acid region 950-1337 of the mature peptide cytoplasmic domain of the human IGF-IR. To generate the cDNA fragment encoding the amino acid region 919-1343 of the intra-cytoplasmic kinase domain of the human insulin receptor, pC5hInsR is used. The fragments of the human IGF-IR and Ins-R are cloned, expressed and small-scale purified as a factor Xa-cleavable glutathione-S-transferase (GST)-fusion protein using the Bac-to-Bac™ system (GIBCO BRL) of recombinant baculovirus generation. Virus containing media is collected from the transfected cell culture and used for infection to increase its titer. Virus containing media obtained after two rounds of infection is used for large-scale protein expression. Cell extracts are prepared and loaded onto a glutathione-Sepharose (Pharmacia) column. After washing, the GST-tagged proteins are then eluted with a glutathione-containing buffer. Purified protein is stored at −70° C. in elution buffer. Tyrosine protein kinase assays with purified GST-IGF-1R and GST-ins-R are carried in a final volume of 30 μl containing 20 mM Tris-HCl, pH 7.6, 10 mM MgCl2, 0.01 mM Na3VO4, 1% DMSO, 1 mM DTT, 3 μg/ml poly(Glu,Tyr) 4:1 and 10 μM ATP (γ-[^33P]-ATP 0.1 μCi). The assay is performed in 96-well plates at ambient temperature for 20 min and terminated by addition of 25 μl 0.05 M EDTA pH 7.0. An aliquot of 40 μl is spotted with a multichannel dispenser on Whatman P81 membranes mounted in a Millipore Microtiter filter manifold connected to a low vacuum source. After elimination of liquid, the membrane is transferred to a sequence of 4 washing baths containing 0.5% H3PO4 and one with EtOH (shaking incubation for 10 min each), dried, mounted onto a Hewlett Packard TopCount manifold added 10 μl Microscint® and counted. Compounds of formula (I) show up to 90% inhibition of Ins-R at 10,000 nM, preferably between 60-90% inhibition. The inhibition of Tek can be determined as follows: The procedure of the expression, purification and assay these kinases has been described. Fabbro et al., Pharmacol. Ther. 82(2-3) 293-301 (1999). In brief, the glutathione S-transferase (GST) gene from the pAcG1 vector (Pharmingen) is excised with EcoRV and EcoRI and inserted into the cloning site of the Fast-Bac baculoviral vector (GIBCO) creating a 5530 bp vector with N-terminal cloning sites derived from the pAcG1 fusion vector (FBG0). The C-terminal cloning site may be any cloning site (from the Fast-Bac vector) downstream of the N-terminal cloning site used. N-terminally GST-fused (pAcG1, Pharmingen) KDR, Flt-1, Flk-1, Tek and PDGFR-β kinase domains are obtained from ProQinase, Freiburg, Germany. Tek is recloned into the FBG1 vector by EcoRI excision and ligation into EcoRI digested FBG1 (FBG1-Tek). The coding sequences for the whole cytoplasmic domain of c-Kit (aa 544-976) and c-Fms (aa 538-972) are amplified by PCR from human uterus and from human bone marrow cDNA libraries (Clontech), respectively. The amplified DNA fragments are fused to GST by cloning them into FBG1 as BamHI-EcoRI insertions, to yield FBG1-c-Kit and FBG1-c-Fms. Tek is recloned into the FBG0 transfer vector by EcoRI excision and ligation into EcoRI digested FBG0 (FBG-Tie2/Tek). FGFR-1 and c-met kinase domains are obtained by PCR from human A431 cells. N-terminal primers contain an overhanging EcoRI site, while C-terminal primers contain a XhoI site to aid cloning into the transfer vectors. After digestion of both the PCR fragments and FBG0 the cleavage products are gel-purified and ligated together to form the kinase constructs (FBG-Met, FBG-FGFR-1).

HER-1 = HER-1 (Homo sapiens, UniProt P00533); experiment: HER-1 kinase inhibition; assay type: biochemical; settings: Table 5; read-out: HER-1, IC50 class
HER-1, sequence (P00533 25-1210, species assumed): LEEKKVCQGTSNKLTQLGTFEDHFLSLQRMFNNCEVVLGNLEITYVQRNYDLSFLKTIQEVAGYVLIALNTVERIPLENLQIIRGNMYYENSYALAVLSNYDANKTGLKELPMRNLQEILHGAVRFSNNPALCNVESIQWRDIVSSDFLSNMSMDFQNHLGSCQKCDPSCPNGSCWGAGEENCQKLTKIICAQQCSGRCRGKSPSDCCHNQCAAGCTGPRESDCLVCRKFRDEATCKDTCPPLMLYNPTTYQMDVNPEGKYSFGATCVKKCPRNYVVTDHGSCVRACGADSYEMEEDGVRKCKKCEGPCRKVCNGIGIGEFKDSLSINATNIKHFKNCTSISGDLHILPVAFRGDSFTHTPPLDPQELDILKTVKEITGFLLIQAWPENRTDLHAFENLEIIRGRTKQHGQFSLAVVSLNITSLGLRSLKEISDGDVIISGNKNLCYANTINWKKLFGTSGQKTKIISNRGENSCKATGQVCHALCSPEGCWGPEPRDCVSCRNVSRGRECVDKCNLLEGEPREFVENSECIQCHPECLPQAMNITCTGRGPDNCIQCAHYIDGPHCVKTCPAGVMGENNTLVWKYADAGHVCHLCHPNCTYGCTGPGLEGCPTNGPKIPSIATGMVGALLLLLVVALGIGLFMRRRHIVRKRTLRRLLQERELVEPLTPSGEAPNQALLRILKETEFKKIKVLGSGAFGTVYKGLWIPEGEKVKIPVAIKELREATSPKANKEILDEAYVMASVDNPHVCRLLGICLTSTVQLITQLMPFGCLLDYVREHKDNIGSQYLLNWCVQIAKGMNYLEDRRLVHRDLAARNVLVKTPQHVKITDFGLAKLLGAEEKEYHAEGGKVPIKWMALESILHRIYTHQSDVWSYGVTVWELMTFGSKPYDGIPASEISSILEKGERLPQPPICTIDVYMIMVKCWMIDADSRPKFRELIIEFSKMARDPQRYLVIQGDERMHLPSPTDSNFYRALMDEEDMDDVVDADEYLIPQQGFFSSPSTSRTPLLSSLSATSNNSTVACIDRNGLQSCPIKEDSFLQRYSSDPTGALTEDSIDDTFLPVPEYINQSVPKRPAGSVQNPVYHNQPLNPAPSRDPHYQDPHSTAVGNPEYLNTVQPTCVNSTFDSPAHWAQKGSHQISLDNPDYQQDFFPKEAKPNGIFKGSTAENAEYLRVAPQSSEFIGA

T1 sequence (P08069 980-1367): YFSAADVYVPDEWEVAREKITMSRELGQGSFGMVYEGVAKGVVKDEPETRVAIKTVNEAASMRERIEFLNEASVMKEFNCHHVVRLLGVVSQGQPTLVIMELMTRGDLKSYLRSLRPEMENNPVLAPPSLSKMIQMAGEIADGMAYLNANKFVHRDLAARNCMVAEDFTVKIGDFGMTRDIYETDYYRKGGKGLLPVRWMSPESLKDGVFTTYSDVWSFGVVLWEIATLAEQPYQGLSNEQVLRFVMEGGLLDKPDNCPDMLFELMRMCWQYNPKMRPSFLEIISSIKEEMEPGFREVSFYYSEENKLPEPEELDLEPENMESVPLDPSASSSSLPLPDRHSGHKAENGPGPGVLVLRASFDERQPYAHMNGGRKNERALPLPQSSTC

IC50 (human IGF-IR) [µM] | IC50 (HER-1) [µM] | Structure (SMILES)
> 10 | 1 to 10 | Cc1nc2c(-c3cccc(N4CCN(C)CC4)c3)cnn2c(N)c1-c1cccc(Cl)c1 [Example 72, 6-(3-Chloro-phenyl)-5-methyl-3-[3-(4-methyl-piperazin-1-yl)-phenyl]-pyrazolo[1,5-a]pyrimidin-7-ylamine]
> 10 | 1 to 10 | Cc1nc2c(-c3ccc(N4CCN(C)CC4)cc3)cnn2c(N)c1-c1cccc(Cl)c1 [Example 73, 6-(3-Chloro-phenyl)-5-methyl-3-[4-(4-methyl-piperazin-1-yl)-phenyl]-pyrazolo[1,5-a]pyrimidin-7-ylamine]
– | < 1 | COc1cc(N2CCN(C)CC2)ccc1-c1cnn2c(N)c(-c3cccc(O)c3)cnc12 [Example 76, 3-{7-Amino-3-[2-methoxy-4-(4-methyl-piperazin-1-yl)-phenyl]-pyrazolo[1,5-a]pyrimidin-6-yl}-phenol]
> 10 | 1 to 10 | Cc1nc2c(-c3ccc(N4CCN(C)CC4)cc3)cnn2c(N)c1-c1ccc(F)cc1 [Example 79, 6-(4-Fluoro-phenyl)-5-methyl-3-[4-(4-methyl-piperazin-1-yl)-phenyl]-pyrazolo[1,5-a]pyrimidin-7-ylamine]
> 10 | > 10 | Cc1nc2c(-c3cccc(N4CCN(C)CC4)c3)cnn2c(N)c1-c1ccc(F)cc1 [Example 80, 6-(4-Fluoro-phenyl)-5-methyl-3-[3-(4-methyl-piperazin-1-yl)-phenyl]-pyrazolo[1,5-a]pyrimidin-7-ylamine]
< 1 | > 10 | Cc1nc2c(-c3cccc(N4CCN(C5CCN(C)CC5)CC4)c3)cnn2c(N)c1-c1cccc(Cl)c1 [Example 81, 6-(3-Chloro-phenyl)-5-methyl-3-{3-[4-(1-methyl-piperidin-4-yl)-piperazin-1-yl]-phenyl}-pyrazolo[1,5-a]pyrimidin-7-ylamine]
> 10 | > 10 | Cc1nc2c(-c3cccc(N4CCN(C)CC4)c3)cnn2c(N)c1-c1ccc(F)c(Cl)c1 [Example 82, 6-(3-Chloro-4-fluoro-phenyl)-5-methyl-3-[3-(4-methyl-piperazin-1-yl)-phenyl]pyrazolo[1,5-a]pyrimidin-7-ylamine]
> 10 | > 10 | Cc1nc2c(-c3ccc(N4CCN(C)CC4)cc3)cnn2c(N)c1-c1ccc(F)c(Cl)c1 [Example 83, 6-(3-Chloro-4-fluoro-phenyl)-5-methyl-3-[4-(4-methyl-piperazin-1-yl)-phenyl]-pyrazolo[1,5-a]pyrimidin-7-ylamine]
> 10 | > 10 | Cc1nc2c(-c3cccc(N4CCN(C)CC4)c3)cnn2c(N)c1-c1cccc(Br)c1 [Example 84, 6-(3-Bromo-phenyl)-5-methyl-3-[3-(4-methyl-piperazin-1-yl)-phenyl]-pyrazolo[1,5-a]pyrimidin-7-ylamine]
> 10 | > 10 | CN1CCN(c2cccc(-c3cnn4c(N)c(Cc5cccc(Br)c5)cnc34)c2)CC1 [Example 85, 6-(3-Bromo-benzyl)-3-[3-(4-methyl-piperazin-1-yl)-phenyl]pyrazolo[1,5-a]pyrimidin-7-ylamine]
> 10 | > 10 | CN1CCN(c2cccc(-c3cnn4c(N)c(-c5cccc(Br)c5)cnc34)c2)CC1 [Example 86, 6-(3-Bromo-phenyl)-3-[3-(4-methyl-piperazin-1-yl)-phenyl]-pyrazolo[1,5-a]pyrimidin-7-ylamine]
> 10 | > 10 | Cc1nc2c(-c3cccc(N4CCOCC4)c3)cnn2c(N)c1-c1cccc(Cl)c1 [Example 87, 6-(3-Chloro-phenyl)-5-methyl-3-(3-morpholin-4-yl-phenyl)-pyrazolo[1,5-a]pyrimidin-7-ylamine]
> 10 | > 10 | COc1ccc(-c2cnn3c(N)c(-c4cccc(Cl)c4)c(C)nc23)cc1 [Example 88, 6-(3-Chloro-phenyl)-3-(4-methoxy-phenyl)-5-methyl-pyrazolo[1,5-a]pyrimidin-7-ylamine]
> 10 | > 10 | Cc1nc2c(-c3cccc(N4C[C@@H](C)O[C@@H](C)C4)c3)cnn2c(N)c1-c1cccc(Cl)c1 [Example 89, 6-(3-Chloro-phenyl)-3-[3-((2R,6S)-2,6-dimethyl-morpholin-4-yl)-phenyl]-5-methyl-pyrazolo[1,5-a]pyrimidin-7-ylamine]
> 10 | > 10 | Cc1nc2c(-c3cccc(N4CCN(CCO)CC4)c3)cnn2c(N)c1-c1cccc(Cl)c1 [Example 90, 2-(4-{3-[7-Amino-6-(3-chloro-phenyl)-5-methyl-pyrazolo[1,5-a]pyrimidin-3-yl]-phenyl}-piperazin-1-yl)-ethanol]
> 10 | > 10 | CN1CCN(c2cccc(-c3cnn4c(N)c(Cc5ccccc5)cnc34)c2)CC1 [Example 91, 6-Benzyl-3-[3-(4-methyl-piperazin-1-yl)-phenyl]-pyrazolo[1,5-a]pyrimidin-7-ylamine]
> 10 | > 10 | COc1ccc(-c2cnn3c(N)c(-c4cccc(Cl)c4)c(CF)nc23)cc1OC [Example 92, 6-(3-Chloro-phenyl)-3-(3,4-dimethoxy-phenyl)-5-fluoromethyl-pyrazolo[1,5-a]pyrimidin-7-ylamine]
> 10 | > 10 | COc1ccc(-c2cnn3c(N)c(-c4cccc(Cl)c4)c(C)nc23)cc1OC [Example 93, 6-(3-Chloro-phenyl)-3-(3,4-dimethoxy-phenyl)-5-methyl-pyrazolo[1,5-a]pyrimidin-7-ylamine]
> 10 | > 10 | COc1ccc(-c2cnn3c(N)c(-c4ccc(F)c(Cl)c4)c(C)nc23)cc1OC [Example 94, 6-(3-Chloro-4-fluoro-phenyl)-3-(3,4-dimethoxy-phenyl)-5-methyl-pyrazolo[1,5-a]pyrimidin-7-ylamine]
> 10 | > 10 | COc1ccc(-c2cnn3c(N)c(-c4ccc(F)c(Cl)c4)c(C)nc23)cc1 [Example 95, 6-(3-Chloro-4-fluoro-phenyl)-3-(4-methoxy-phenyl)-5-methyl-pyrazolo[1,5-a]pyrimidin-7-ylamine]
> 10 | 1 to 10 | COc1ccc(-c2cnn3c(N)c(-c4ccc(F)cc4)c(C)nc23)cc1 [Example 96, 6-(4-Fluoro-phenyl)-3-(4-methoxy-phenyl)-5-methyl-pyrazolo[1,5-a]pyrimidin-7-ylamine]
> 10 | > 10 | Cc1nc2c(-c3cccc(N4CCN(CCO)CC4)c3)cnn2c(N)c1-c1ccc(F)cc1 [Example 97, 2-(4-{3-[7-Amino-6-(4-fluoro-phenyl)-5-methyl-pyrazolo[1,5-a]pyrimidin-3-yl]-phenyl}-piperazin-1-yl)-ethanol]
> 10 | > 10 | Cc1nc2c(-c3cccc(N4CCN(C)CC4)c3)cnn2c(N)c1-c1ccc(F)c(F)c1 [Example 98, 6-(3,4-Difluoro-phenyl)-5-methyl-3-[3-(4-methyl-piperazin-1-yl)-phenyl]-pyrazolo[1,5-a]pyrimidin-7-ylamine]
> 10 | > 10 | COc1ccc(-c2cnn3c(N)c(-c4ccc(F)c(F)c4)c(C)nc23)cc1OC [Example 99, 6-(3,4-Difluoro-phenyl)-3-(3,4-dimethoxy-phenyl)-5-methyl-pyrazolo[1,5-a]pyrimidin-7-ylamine]
